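Tested at 5 concentrations; 48 h exposure; 96-well plates; endpoints linearly interpolated, else capped at highest concentration. TGI marks complete inhibition of growth.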
Columns and labels:
Assay in all cases: inhibition of tumour cell growth, NCI panel, 48 h
IGROV1 ovarian = system: IGROV1 ovarian
DMS 114 small cell lung = system: DMS 114 small cell lung
M19-MEL melanoma = system: M19-MEL melanoma
DMS 273 small cell lung = system: DMS 273 small cell lung
DLD-1 colon = system: DLD-1 colon
KM20L2 colon = system: KM20L2 colon
HOP-62 NSCLC = system: HOP-62 NSCLC
SNB-78 CNS = system: SNB-78 CNS
SF-268 CNS = system: SF-268 CNS
HOP-18 NSCLC = system: HOP-18 NSCLC
LXFL 529 NSCLC = system: LXFL 529 NSCLC
HS 578T breast = system: HS 578T breast
SF-295 CNS = system: SF-295 CNS
XF 498 CNS = system: XF 498 CNS

Row | Structure (SMILES) | TGI (IGROV1 ovarian) | TGI (DMS 114 small cell lung) | TGI (M19-MEL melanoma) | TGI (DMS 273 small cell lung) | TGI (DLD-1 colon) | TGI (KM20L2 colon) | TGI (HOP-62 NSCLC) | TGI (SNB-78 CNS) | TGI (SF-268 CNS) | TGI (HOP-18 NSCLC) | TGI (LXFL 529 NSCLC) | TGI (HS 578T breast) | TGI (SF-295 CNS) | TGI (XF 498 CNS)
1 | O=c1[nH]c(=O)n([C@H]2C[C@@H](CO)[C@@H](O)C2)cc1I | > 100 µM | > 100 µM | > 100 µM | > 100 µM | > 100 µM | > 100 µM | > 100 µM | > 100 µM | > 100 µM | > 100 µM | > 100 µM | – | – | –
2 | COc1ccc2nc3cccc([N+](=O)[O-])c3c(NCCC(=O)O)c2c1 | > 10 µM | – | – | – | – | – | > 10 µM | – | > 10 µM | – | – | > 10 µM | > 10 µM | –
3 | N#Cc1c(-c2ccccc2)cn(C(=O)c2ccccc2)c1N | > 100 µM | – | – | – | – | – | > 100 µM | – | > 100 µM | – | – | > 100 µM | > 100 µM | –
4 | Cc1csc2nc(-c3cc([N+](=O)[O-])c(Cl)cc3Cl)c(/C=N/N=C(N)N)n12 | 30 µM | – | – | – | – | – | 35 µM | – | 39.7 µM | – | – | 32.7 µM | 38.8 µM | –
5 | COc1cccc(CCn2c(N)c(-c3cc(Cl)cc(Cl)c3)c3ccc([N+](=O)[O-])cc3c2=O)c1 | 22.7 µM | – | – | – | – | – | > 100 µM | – | > 100 µM | – | – | > 38 µM | > 100 µM | –
6 | O=c1ccn(C/C=C/c2ccccc2)c(=S)n1C/C=C/c1ccccc1 | > 100 µM | – | – | – | – | – | > 100 µM | – | > 100 µM | – | – | > 100 µM | > 100 µM | –
7 | COc1nc(=O)[nH]c2c1C(c1ccc([N+](=O)[O-])cc1)c1c(OC)nc(=O)[nH]c1O2 | > 100 µM | – | – | – | – | – | > 100 µM | – | > 100 µM | – | – | > 100 µM | > 100 µM | –
8 | Cc1c(-c2coc(-c3ccc([N+](=O)[O-])cc3)n2)c(=O)n(-c2ccccc2)n1C | > 100 µM | > 100 µM | > 100 µM | > 100 µM | > 100 µM | > 100 µM | > 100 µM | > 100 µM | > 100 µM | – | > 100 µM | – | > 100 µM | –
9 | CN(C)c1n2c3ccc([N+](=O)[O-])cc3n3c(N(C)C)[n+]4ccccc4c3c2c2cccc[n+]12 | > 100 µM | – | – | – | – | – | > 100 µM | – | > 100 µM | – | – | > 100 µM | > 100 µM | –
10 | CCCCCCC(=O)OC[n+]1ccc(-c2c(COC(=O)NC(C)C)c(COC(=O)NC(C)C)c3n2CCC3)cc1 | > 100 µM | – | – | – | – | – | > 100 µM | – | > 100 µM | – | – | > 100 µM | > 100 µM | –
11 | Nc1c(F)c(F)c2c(c1F)N(CCCCCl)c1ccccc1S2 | > 100 µM | – | – | – | – | – | > 100 µM | – | > 100 µM | – | – | > 100 µM | > 100 µM | –
12 | N#CCCC(C#N)(C#N)CCC#N | > 100 µM | > 100 µM | > 100 µM | > 100 µM | – | > 100 µM | > 100 µM | – | > 100 µM | – | > 100 µM | – | > 100 µM | > 100 µM
13 | CCOC(=O)/C(=C\c1c[nH]c2ccccc12)P(=O)(OCC)OCC | > 100 µM | – | – | – | – | – | > 100 µM | – | > 100 µM | – | – | > 100 µM | > 100 µM | –
14 | Nc1c(S(=O)(=O)O)cc(S(=O)(=O)O)c2ccc(N=Nc3ccccc3)c(O)c12 | > 100 µM | – | – | – | – | – | > 100 µM | – | > 100 µM | – | – | > 100 µM | > 100 µM | –
15 | CC(C)N(C(C)C)S(=O)(=O)CC12CCC(C/C1=N\O)C2 (configuration not stated) | > 100 µM | – | – | – | – | – | > 100 µM | – | > 100 µM | – | – | > 100 µM | > 100 µM | –
16 | CCOC(=O)c1c2ccccc2n2c(=O)n(-c3ccc(OC)cc3)nnc12 | > 100 µM | – | – | – | – | – | 63 µM | – | 45.7 µM | – | – | 55.9 µM | > 62.5 µM | –
17 | Cc1cc(-c2nc3cc(F)ccc3s2)ccc1N | > 100 µM | – | – | – | – | – | 72 µM | – | > 90.5 µM | – | – | > 82 µM | > 100 µM | –
18 | Cc1nc(C)c(N2CCN(Cc3ccccc3)CC2)c(=O)[nH]1 | > 100 µM | – | – | – | – | – | > 100 µM | – | > 100 µM | – | – | > 100 µM | > 100 µM | –
19 | CCCCC/C=C\C=C\CCCCCCCCC(=O)OC | > 100 µM | – | – | – | – | – | > 100 µM | – | > 100 µM | – | – | > 100 µM | > 100 µM | –
20 | COc1ccc(/C=C2/SC(=Nc3ccccc3)N(NC(=O)Cc3ccccc3)C2=O)cc1 | > 100 µM | – | – | – | – | – | > 100 µM | – | > 100 µM | – | – | > 100 µM | > 100 µM | –

Reference: PubChem BioAssay (NCI)
